These results are taken from patent publication US7056355B2, “Hair dye composition and dyeing method” (Kao Corporation, priority 2002, dated 2006).

For orientation: pKa means the negative logarithm of the acid dissociation constant. A low value points to a stronger acid or weaker base.

A short description of one data set: pKa determination in DMF/water by titration with UV-visible spectra. To be noted: DMF/water (1/1 by volume) solution, dye 2×10^−5 mol/l. The format is physicochemical. The method, then: The pKa value is determined in DMF/water (1/1-mixture, by volume) as follows:
The dye is dissolved in a solution of a DMF/water (1/1; volume ratio) to a final concentration of 2×10^−5 mol/l. After the resulting solution is adjusted to pH 2, using 1.0 mol/l hydrochloric acid, the solution is titrated with an aqueous 1.0 mol/l sodium hydroxide solution. Recording the change of the visible ultra-violet absorption spectrum, the inflection point is determined by regression analysis.
`N#CC1=NN(c2ccccc2)C(=O)C1/N=N/c1ccc(S(N)(=O)=O)cc1` [Dye D-6]: the pKa was found to be 4.2.
The same measure, in the same setting: then `COc1ccc(/N=N/C2C(=O)N(c3ccccc3)N=C2C#N)cc1` [Dye D-7], with 4.6; and `N#CC(/N=N/c1ccc(S(N)(=O)=O)cc1)C(=O)c1ccccc1` [Dye D-14], with 5.82.
Still for that read-out and setting: then `COc1ccc(/N=N/C2C(=O)N(c3ccc(S(N)(=O)=O)cc3)N=C2C#N)cc1` [Dye D-15], with 4.36; and `Cc1nn2nc(C(C)(C)C)c(/N=N/c3cc(Cl)c(S(N)(=O)=O)cc3Cl)c2[nH]1` [Dye D-17], with 5.92.
On the same count and under the same terms, then `CS(=O)(=O)c1ccc(/N=N/c2ccc(O)c3ccccc23)c(C#N)c1` [Dye D-25], with 6.5; and `CC(=O)Nc1cc(/N=N/c2ccc(S(C)(=O)=O)cc2C#N)c2ccccc2c1O` [Dye D-26], with 7.1.

The same data set, now with this note: DMF/water (1/1 by volume), dye 2×10^−5 mol/l.
In the case of `N#CC1=NN(c2ccccc2)C(=O)C1/N=N/c1cc(Cl)c(S(N)(=O)=O)cc1Cl` [Dye D-18], the pka worked out at 2.86.
Regarding `CS(=O)(=O)Nc1cccc2c(O)ccc(/N=N/c3ccc([N+](=O)[O-])cc3S(C)(=O)=O)c12` [Dye D-21], the pka came to 4.32.
Molecule `NS(=O)(=O)c1cccc(S(=O)(=O)Nc2cccc3c(O)ccc(/N=N/c4ccc([N+](=O)[O-])cc4)c23)c1` [Dye D-22] returned a pka of 6.34.
`CCOC(=O)Nc1cc(/N=N/c2ccc(S(C)(=O)=O)cc2C#N)c2c(NS(C)(=O)=O)cccc2c1O` [Dye D-24]: the pka came out at 5.09.
